Patent US11638427B2, “Methods and compositions for altering secondary metabolites in plants” (Impello Biosciences, Inc, priority 2020, dated 2023)

Assays:
Penicillium spp. = assay: Mold growth on jasmonate-infused plates, mold isolated from pineapple; type: cell-based; settings: 5 mM, 10 mM, or 20 mM in plates
Description: (§1) MDJ (TCI, CAS No.: 24851-98-7) and CJ were infused into potato dextrose agar (PDA, VWR Cat No.: 90003-494) petri dishes (100×15 mm VWR, Cat No: 25384-094) at concentrations ranging from 1 mM, 4.25 mM, and 10 mM. Each treatment was prepared using a technical grade stock solution of pure chemical (CJ or MDJ) diluted with TWEEN®-20 (VWR, CAS No.: […]). Culturable oyster mushroom and seedling mold served to create fungal mycelial plugs using a sterile 1 mL pipette tip (Eppendorf, Cat No.: 022491458) held upside down. The tips were used to make circle excisions (i.e., fungal plugs) from a mycelial mat grown on PDA with no biochemical infusions. Fungal pugs were then transferred to PDA infused with varying concentrations of CJ or MDJ, and control plates (no CJ or MDJ infusion) to monitor fungal growth at room temperature over time.
(§2) Based on the above results in Cannabis spp., additional fungi from various crops was sampled and tested. Plates comprising various concentrations of MDJ or MJ were prepared as described above.

[1] = tested on: marijuana variety Lemon Creamsicle; assay: Foliar spray of CJ or MDJ on high-THC marijuana in greenhouse, cannabinoid analysis; type: in vivo, Cannabis spp.; settings: 7.5 mM foliar spray every 14 days, four treatments
Description: Applicant's previous experiments investigated the effects of jasmonate-type elicitors MeJA, MDJ, and CJ on hemp (high fiber) and high-CBD, (low-THC) varieties of Cannabis. […] Here, the effects of MDJ and CJ application on a high-THC variety in a controlled environment was investigated. High-THC, low-CBD marijuana variety “Lemon Creamsicle” (LC), was grown in a greenhouse setting. LC was used as a plant model due to its historically consistent metabolite profile in the greenhouse environment, making it a stable, known, and reliable variety.
A four-block plant trial was implemented with a population of N=12 plants and treatment group sizes of n=4. The treatment and control groups were defined as follows: Control=water+0.1% TWEEN®-20 aqueous foliar spray, Treatment 1=[7.5 mM] CJ+0.1% TWEEN®-20 aqueous foliar spray, Treatment 2=[7.5 mM] MDJ+0.1% TWEEN®-20 aqueous foliar spray. A standardized concentration of [7.5 mM] for both CJ and MDJ applications was chosen due to its performance in Applicant's past research. All treatment solutions were prepared the day of the application in equal volumes from pre-measured quantities of the stock materials to ensure consistency, i.e., appropriate volumes of CJ or MDJ were combined with appropriate volumes of TWEEN®-20 for each experimental treatment, stored in a sealed centrifuge tube, and diluted in the appropriate amount of water immediately prior to application. Separate sprayers were used for each treatment and control sprays to avoid cross-contamination.
All plants in the trial were produced as asexual clone stock taken from the same mother plant at the same time to ensure homogeneity. All plants were rooted and grown in accordance with the production practices typical to this greenhouse operator prior to plant selection for the experiment. Due to the layout of the cultivation system, which features immovable hydroponic “pots” that house the plant throughout the entire flowering (i.e., reproductive) phase, all plants included in the experiment were selected from a set section of the greenhouse after final transplant into the hydroponic system and grouped in a complete randomized block design accordingly.
After defining the plants to include in the experiment, which were organized in two (2) rows of six (6) plants side-by-side in the hydroponic system, the experimental blocks were defined as groups of three plants, and a research randomizer tool (randomizer.org) was used to generate a randomized arrangement of plants in each group. Using a blocked design in this setting helped account for the immovable nature of the plants and the slight, if any, environmental differences (like natural sunlight, shading from other plants, and corner/edge effect) that existed in the small experimental area. Blocking the experimental arrangement also allowed for improved statistical analysis and resolution considering the small sample size and close proximity of the experimental plants.
After labelling each plant in the experiment with the appropriate group label (Control, T1 [CJ], or T2 [MDJ]), the plants were allowed to grow normally between treatment applications, which were performed every 14 days for a total of four (4) treatments throughout the flowering cycle, which lasted approximately eight (8) weeks. The first treatment occurred seven (7) days after the onset of the flowering cycle, which was dictated by day-length control. Care was taken with each treatment application to minimize overspray onto non-target neighboring plants, and physical barriers were temporarily installed between plants during treatment sprays to aid in this effort. These barriers were removed following treatment sprays when the foliage was no longer visibly wet from the treatment and/or control foliar sprays. […]

oyster mushroom = assay: Fungal plug growth on jasmonate-infused PDA plates; type: cell-based; settings: all concentrations (1 mM, 4.25 mM, 10 mM) in PDA; 72 hours and 10 days
Description: as §1

[2] = tested on: Pencicillium sclerotigenum; assay: Mold growth on jasmonate-infused plates, mold isolated from sweet potato; type: cell-based; settings: 1 mM, 5 mM, 10 mM, or 20 mM in plates
Description: as §1, §2

hemp plants Cv. Zephyr = assay: Weekly MDJ foliar spray at four concentrations, cannabinoids and terpenes; type: in vivo, Cannabis spp.
Description: To investigate the effect of different concentrations of MDJ, four different concentrations of MDJ was applied to hemp plants (n=5 per treatment, Cv.: Zephyr, CBDRx) weekly via foliar spray at the following concentrations: 1 mM, 4.25 mM, 7.5 mM, 10 mM. Treatment concentrations were prepared as described above and one drop of TWEEN®-20 (VWR, CAS No.: 9005-64-5) was added to treatments to serve as a surfactant. Treatments were applied weekly during both the vegetative (2 treatments) and flowering (6 treatments) developmental stages using a SPRAYMASTER Chemical Sprayer (King of Prussia, Pa.) (8 treatments total). Plants were grown under a total of 12 Boost (Thrive Agritech, NY) 130-watt LED lights set to 18L: 6D photoperiod during the vegetative phase (2 weeks) followed by a 12L: 12D photoperiod during the flowering phase (6 weeks), using the same lighting. Untreated controls served as a comparison to see alterations in metabolite synthesis.

[3] = all tested concentrations (1, 4.25, 7.5, 10 mM) weekly foliar spray vs untreated controls

With `CCCCCC1C(=O)CCC1CC(=O)OC` (stereo not drawn) [MDJ, methyl dihydrojasmonate] the “growth of mold isolated from pineapple” value (Penicillium spp.) was “effective at preventing the growth”, the “CBGA average relative percent increase compared to the Control group” value [1] was 15.91% and the “THCA average relative percent increase compared to the Control group” value [1] was 6.88%. For the same compound, the “Total Cannabinoids average relative percent increase compared to the Control group” value [1] was 6.06%, the “Total THC average relative percent increase compared to the Control group” value [1] was 5.92% and the “Oyster mushroom fungal growth compared to control” value (oyster mushroom) was “showed inhibition”. The “growth of mold isolated from sweet potato” value [2] was “effective at preventing the growth”, the CBDA (hemp plants Cv. Zephyr; [3]) was “significantly increased” and the CBGA (hemp plants Cv. Zephyr; [3]) was “significantly increased”. The THCA (hemp plants Cv. Zephyr; [3]) was “significantly increased”, the “Total CBD” value (hemp plants Cv. Zephyr; [3]) was “significantly increased” and the “Total CBG” value (hemp plants Cv. Zephyr; [3]) was “significantly increased”. The Total cannabinoids (hemp plants Cv. Zephyr; [3]) was “significantly increased”, the several terpenes (hemp plants Cv. Zephyr; weekly foliar spray 1-10 mM) was “altered” and the CBL (hemp plants Cv. Zephyr; weekly foliar spray, CBL not detected at all in the control samples) was “detectable levels”.
